This is an account of results in ChEMBL document CHEMBL2375311, “Cytotoxic 3,4,5-trimethoxychalcones as mitotic arresters and cell migration inhibitors” (Eur J Med Chem, 2013).

pEC50, pIC50: −log10 of the molar value. Active and inactive are the calls of the source. No cut-off for these calls is given here.

Assay [1] concerns HeLa. Put plainly: Antimitotic activity in human HeLa cells assessed as tubulin staining intensity at 1 nM after 24 hrs by Hoechst 33342 staining. The class given is functional, cell-based.
Assay [2] concerns HeLa. Put plainly: Antimitotic activity in human HeLa cells assessed as tubulin staining intensity at 5 nM after 24 hrs by Hoechst 33342 staining. The class given is functional, cell-based.
In assay [3] the test system is MDA-MB-231. Description: Antimigratory activity against human MDA-MB-231 cells at 0.5 to 5 uM after 22 hrs by scratch wound healing assay. The class given is functional, cell-based.
Assay [4] has as its system HeLa. Description: Cell cycle arrest in human HeLa cells assessed as disorganized microtubules at 62 nM after 24 hrs by Hoechst 33342 staining. The class given is functional, cell-based.
Assay [5] concerns MDA-MB-231. Put plainly: Antimigratory activity against human MDA-MB-231 cells at 1 uM after 22 hrs by scratch wound healing assay. The format is functional.
For assay [6], the system named is L1210. Description: Cytotoxicity against mouse L1210 cells after 24 hrs by MTT assay. The class given is functional, cell-based. To be noted: L1210, 24 h. In general terms: Formazan colour is commonly taken as a measure of viable cells.
Assay [7] can be described thus: Inhibition of bovine brain tubulin assembly after 20 mins by spectrophotometric analysis. Further details: species or system Bos taurus.
Assay [8] concerns REH. Description: Cytotoxicity against human REH cells after 48 hrs by MTT assay. The class given is functional, cell-based.
Assay [9] relates to Jurkat. Description: Cytotoxicity against human Jurkat cells after 48 hrs by MTT assay. The format is functional, cell-based.
Assay [10] deals with MDA-MB-231. Put plainly: Antimigratory activity against human MDA-MB-231 cells after 6 hrs by Boyden chamber migration assay. The format is functional, cell-based. To be noted: MDA-MB-231, 6 h.
For assay [11], the system named is HeLa. Put plainly: Antimitotic activity in human HeLa cells assessed as cell density loss after 24 hrs by Hoechst 33342 staining. The class given is functional, cell-based.
Assay [12] deals with HUVEC. Description: Cytotoxicity against human HUVEC cells after 24 hrs by MTT assay. The format is cell-based.
Assay [13] has as its system NIH3T3. Description: Cytotoxicity against mouse NIH/3T3 cells after 24 hrs by MTT assay. The format is cell-based. To be noted: NIH3T3, 24 h.
Assay [14] concerns PBMC. Description: Cytotoxicity against human PBMC cells after 24 hrs by MTT assay. The class given is cell-based.
Assay [15] deals with HeLa. Description: Antimitotic activity in human HeLa cells assessed as increase in phosphohistone H3 level after 24 hrs by Hoechst 33342 staining. The format is functional.
The test system of assay [16] is HeLa. Description: Cell cycle arrest in human HeLa cells assessed as disorganized microtubules at 940 nM after 24 hrs by Hoechst 33342 staining. The class given is functional, cell-based.
In assay [17] the test system is HeLa. Put plainly: Antimitotic activity in human HeLa cells assessed as chromatin condensation after 24 hrs by Hoechst 33342 staining. The class given is functional. To be noted: read-out: MEC.
For assay [18], the system named is HeLa. Put plainly: Antimitotic activity in human HeLa cells assessed as tubulin intensity after 24 hrs by Hoechst 33342 staining. The format is functional. To be noted: read-out: MEC.
Assay [19] relates to HeLa. Put plainly: Cell cycle arrest in human HeLa cells assessed as disorganized microtubules at 470 nM after 24 hrs by Hoechst 33342 staining. The class given is functional, cell-based.

As for `COc1cc2c(c(OC)c1OC)-c1ccc(OC)c(=O)cc1[C@@H](NC(C)=O)CC2` [COLCHICINE], the outcome in assay [1] was inactive. Further, the result in assay [2], in assay [3] and in [4] was Active. This molecule came in with an Activity in assay [5] of 74%.
What is called pIC50 is −log10 of the IC50, conventionally taken in molar units. Higher therefore signals a low IC50. Consider `COc1cc(C(=O)/C=C/c2ccc(Cl)cc2)cc(OC)c1OC`, for which the pIC50 in assay [6] is 4.35.
Molecule `COc1cc(C(=O)/C=C/c2ccc(Cl)cc2Cl)cc(OC)c1OC` showed a negative-log IC50 (pIC50) in assay [6] of 4.28.
`COc1cc(/C=C/C(=O)c2cc(OC)c(OC)c(OC)c2)ccc1O`: the pIC50 in assay [6] was under 4.00.
Same read-out and setting: then `COc1cc(OC)c(/C=C/C(=O)c2cc(OC)c(OC)c(OC)c2)c(OC)c1`, with 4.20.
What is called pEC50 is the negative decadic logarithm of the EC50, by convention in mol/L. As for `COc1cc(C(=O)/C=C/c2ccc3ccccc3c2)cc(OC)c1OC`, the pIC50 in assay [6] is 4.59; in [7], 5.66; in [8] it was 6.14; in assay [9] it was 6.30; in assay [10], 5.96; in assay [12], 4.43. For the same molecule, the negative logarithm of the IC50 (pIC50) was 4.47 in [13] and 4.74 in assay [14]. In addition, the outcome in [1] was inactive. Besides, the result in assay [2], in assay [3] and in [16] was Active. For the same molecule, in assay [11], the pEC50 is 6.16. Also, the Activity worked out at 397 nM in [15] and 46% in assay [5].
In [6], `COc1cc(/C=C/C(=O)c2cc(OC)c(OC)c(OC)c2)cc(OC)c1OC` showed a negative-log IC50 (pIC50) of under 4.00.
With `COc1cc(OC)c(OC)cc1/C=C/C(=O)c1cc(OC)c(OC)c(OC)c1`, the negative logarithm of the IC50 (pIC50) in assay [6] was 4.37.
In assay [6], `COc1cc(C(=O)/C=C/c2ccc(Cl)c(Cl)c2)cc(OC)c1OC` showed a negative-log IC50 (pIC50) of 4.36.
`COc1ccc(/C=C/C(=O)c2cc(OC)c(OC)c(OC)c2)cc1` showed a negative logarithm of the IC50 (pIC50) in assay [6] of 4.32.
In turn, `COc1cc(C(=O)/C=C/c2c(Cl)cccc2Cl)cc(OC)c1OC` showed a negative-log IC50 (pIC50) in [6] of 4.30.
With `COc1cc(C(=O)/C=C/c2ccc3ccccc3c2)ccc1O`, the negative-log IC50 (pIC50) in assay [6] is 4.27; in [7], 5.44; in assay [8], 5.59; in [9] it was 5.23; in assay [14], 4.45. Besides, the minimal effective concentration in assay [17] was found to be 2.2 µM; in [18], 1.1 µM. Also, the negative logarithm of the EC50 (pEC50) in [11] is 5.48. Besides, the Activity in assay [15] came to 1400 nM.
Take `O=C(/C=C/c1ccccc1)c1ccccc1` [CHALCONE]: the negative logarithm of the IC50 (pIC50) in assay [6] was under 4.00; in assay [7] it was under 5.00; in assay [9], 4.77; in assay [14], 4.57. For the same molecule, the minimal effective concentration in assay [17] and in assay [18] was over 50 µM each time. Also, in assay [11], the pEC50 is under 4.30. Besides, the Activity in [15] was over 50000 nM.
As to `COc1cc(C(=O)/C=C/c2ccc(N(C)C)cc2)cc(OC)c1OC` (mixture of isomers), the pIC50 is 4.52 in [6]; 5.55 in assay [7]; 5.98 in assay [8]; 5.92 in [9]; 6.18 in assay [10]; under 4.00 in assay [12]. In addition, the values for the pIC50 in assay [13] and in assay [14] were 4.18 and 4.03, respectively. Besides, in assay [1], the outcome was inactive. Besides, the result in assay [2], in assay [3] and in assay [19] was Active. Also, in assay [11], the pEC50 was 6.45. Further, the values for the Activity in assay [15] and in [5] were 200 nM and 54%, respectively.
In the case of `COc1cc(C(=O)/C=C/c2ccc(Br)cc2)cc(OC)c1OC`, the pIC50 in assay [6] was under 4.00.
In the case of `COc1cc(C(=O)/C=C/c2cccc([N+](=O)[O-])c2)cc(OC)c1OC`, the negative logarithm of the IC50 (pIC50) in assay [6] was under 4.25.
`COc1cc(C(=O)/C=C/c2cc(Cl)cc(Cl)c2)cc(OC)c1OC` had a negative logarithm of the IC50 (pIC50) in [6] of 4.36.
Molecule `COc1cc(C(=O)/C=C/c2ccc([N+](=O)[O-])cc2)cc(OC)c1OC` showed a negative-log IC50 (pIC50) in [6] of under 4.00.
Molecule `COc1cc(C(=O)/C=C/c2ccc(C)cc2)cc(OC)c1OC` gave a pIC50 in assay [6] of 4.30.
For `COc1cc(C(=O)/C=C/c2ccc(C)o2)cc(OC)c1OC`, in [6], the pIC50 is 4.33.
On to `CCCCOc1ccc(/C=C/C(=O)c2cc(OC)c(OC)c(OC)c2)cc1`, for which the pIC50 in assay [6] is under 4.00.
Take `COc1ccc(/C=C/C(=O)c2ccc3c(c2)OCO3)c(OC)c1OC`: the pIC50 in [6] was 4.32; in assay [7], under 5.00; in [8] it was 4.63; in [9], 4.52; in assay [14], 4.09. The minimal effective concentration in assay [17] and in assay [18] was over 50 µM each time. In addition, the pEC50 in [11] was under 4.30. For the same molecule, the Activity in assay [15] was over 50000 nM.
Consider `COc1cc(C(=O)/C=C/c2ccc(F)cc2)cc(OC)c1OC`, for which the pIC50 in [6] is 4.33.
Same read-out and setting: next, `COc1cc(C(=O)/C=C/c2ccc(Cl)c(C(F)(F)F)c2)cc(OC)c1OC`: 4.32.
